≈ marks a conversion by molar mass, not a printed value. Counter-ions that a name gives are not always drawn. Like-named read-outs stand apart in the source and are kept apart here.
Assays:
[1] = tested on: GC3 human colon carcinoma cells; test: GC3 human colon carcinoma screen (MTT); format: cell-based
Method: Selected wells of a 96 well plate were seeded with GC3 human colon carcinoma cells ([…] cells in 100 μl assay medium/well) twenty four hours prior to test compound addition. Cell free assay medium was added to other select wells of the 96 well plate.
The test compound was stored in an amber bottle prior to testing. Fresh dimethylsulfoxide stock solution (200 μg/ml) was prepared immediately prior to preparation of test sample dilutions in phosphate-buffered saline (PBS). A dilution of 1:20 dimethylsulfoxide solution in PBS was prepared such that the final concentration was 10 ug/ml. Serial 1:3 dilutions using PBS (0.5 ml previous sample of 1 ml PBS) were prepared.
A 10 ul sample of each dilution of test compound was added in triplicate to wells of GC3 plates. The plates were incubated for 72 hours at about 37° C. A 10 μl sample of stock 3-[4,5-[…]]-2,5-diphenyltetrazolium bromide salt (“MTT” 5 mg/ml in PBS) was added to each well. The plates were incubated for about an hour at 37°. The plates were centrifuged, media was decanted from the wells and 100 μl acid-isopropanol (0.04 N HCl in isopropanol) was added to each well. The plate was read within one hour using a test wavelength of 570 nm (SpectraMax reader).

[2] = tested on: Aortic smooth muscle (A-10) cells; test: Effects on the cytoskeleton (immunofluorescence); format: cell-based, rat; settings: 2 μM, 24 hours
Method: (§1) A-10 cells are grown to near-confluency on glass coverslips in BME/10% FBS. Compounds in PBS are added to the indicated final concentrations and cells are incubated for an additional 24 hours. For the staining of microtubules and intermediate filaments, the cells are fixed with cold methanol and incubated with PBS containing 10% calf serum to block nonspecific binding sites. Cells are then incubated at 37° C. for 60 min. With either monoclonal anti-β-tubulin or with monoclonal anti-vimentin at dilutions recommended by the manufacturer. Bound primary antibodies are subsequently visualized by a 45 minute incubation with fluorescein-conjugated rabbit antimouse IgG. The coverslips are mounted on microscope slides and the fluorescence patterns are examined and photographed using a Zeiss Photomicroscope Ill equipped with epifluorescence optics for fluorescein. […] PBS containing 100 nM TRITC-phalloidin is then added and the mixture is allowed to incubate for 45 min. At 37° C. The cells are washed rapidly with PBS before the coverslips are mounted and immediately photographed as described above.
After 24 hours, microtubules and vimentin intermediate filaments are visualized by indirect immunofluorescence and microfilaments are stained using TRITC-phalloidin. The morphological effects of each drug is examined. […]

[3] = tested on: SKVLB1 cells; test: Toxicity toward SKVLB1 cells (growth inhibition); format: cell-based; settings: Homo sapiens, inhibition of proliferation, P-glycoprotein over expressing, vinblastine-resistant sub-line
[4] = tested on: A-10 cells; test: Effects on taxol-stabilized microtubules; format: cell-based, rat
Method: as §1
A-10 cells are treated for 3 hours with 0 or 10 μM taxol before the addition of PBS, 100 nM vinbiastine or 10 nM cryptophycin compound. After 24 hours, microtubule organization is examined by immunofluorescence as described above. […] Similarly, microtubules pretreated with taxol are observed with cryptophycin treatment.

[5] = tested on: A-10 cells; test: Reversibility of microtubule depolymerization; format: cell-based, rat
Method: as §1
The cells are then washed and incubated in drug-free medium for periods of 1 hour or 24 hours. […] Cells are visualized for microtubule state after treatment with a cryptophycin compound of this invention at either 1 hour or 24 hours after removal of the cryptophycin compounds.

[6] = Solubility in excipient / parenteral vehicles; format: physicochemical; settings: Comparative solubility
[7] = Homo sapiens, Colon carcinoma cell, 72 h, read-out: IC50 (GC3 assay)
[8] = in vitro cytotoxicity, Gc3 tumor cell model, read-out: Gc3 IC50
[9] = Homo sapiens, Colon carcinoma cell, 72 h, read-out: GC3 IC50

COc1ccc(C[C@H]2NC(=O)/C=C/C[C@@H]([C@H](C)[C@@H](Br)C(=O)c3ccccc3)OC(=O)[C@H](CC(C)C)OC(=O)[C@H](C)CNC2=O)cc1Cl [CRYPTOPHYCIN-139, Cryptophycin-139]
IC50 [1, 7]: 3.4 nM

C=C1[C@@H](C)[C@H]2[C@H](Cc3ccccc3)NC(=O)[C@]23OC(=O)/C=C/[C@H](O)CCC[C@@H](C)C/C=C/[C@H]3[C@@H]1O [Cytochalasin B, cytochalasin B]
effect on microfilaments ([2]; TRITC-phalloidin staining): complete depolymerization of microfilaments
effect on distribution of microtubules or intermediate filaments ([2]; indirect immunofluorescence): did not affect

CC(=O)O[C@H]1C(=O)[C@@]2(C)[C@H]([C@H](OC(=O)c3ccccc3)[C@]3(O)C[C@H](OC(=O)[C@H](O)[C@@H](NC(=O)c4ccccc4)c4ccccc4)C(C)=C1C3(C)C)[C@]1(OC(C)=O)CO[C@@H]1C[C@@H]2O [Taxol, taxol]
IC50 [3]: 8000 nM
microtubule organization in taxol-treated cells ([4]; 10 μM taxol, compared with control cells): extensively bundled

COc1ccc(C[C@H]2NC(=O)/C=C/C[C@@H]([C@H](C)[C@H](Br)[C@H](O)c3ccccc3)OC(=O)[C@H](CC(C)C)OC(=O)[C@H](C)CNC2=O)cc1Cl [CRYPTOPHYCIN-145, Cryptophycin-145]
IC50 [1, 7]: 0.015 nM

CC[C@]1(O)C[C@@H]2CN(CCc3c([nH]c4ccccc34)[C@@](C(=O)OC)(c3cc4c(cc3OC)N(C)[C@H]3[C@@](O)(C(=O)OC)[C@H](OC(C)=O)[C@]5(CC)C=CCN6CC[C@]43[C@@H]65)C2)C1 [Vinblastine, vinblastine]
IC50 [3]: 4200 nM
microtubule repolymerization 1 hour after removal of drug ([5]; 100 nM for 24 hr, washed, drug-free medium 1 hour): significant levels of microtubules
microtubule repolymerization 24 hours after removal of drug ([5]; 100 nM for 24 hr, washed, drug-free medium 24 hours): complete morphological recovery
microtubule depolymerization ([5]; 100 nM, 24 hr): complete microtubule depolymerization
microtubule depolymerization after taxol pretreatment ([4]; 100 nM vinblastine after 3 hours pretreatment with 10 μM taxol): prevented microtubule depolymerization
microtubule depolymerization ([4]; 100 nM, 24 hours, non-pretreated cells): complete depolymerization of microtubules

COc1ccc(C[C@H]2NC(=O)/C=C/C[C@@H]([C@H](C)[C@@H](O)[C@@H](Cl)c3ccccc3)OC(=O)[C@H](CC(C)C)OC(=O)C(C)(C)CNC2=O)cc1Cl [Compound 1, cryptophycin 55]
solubility ([6]; aqueous with cosolvent or surfactant or cyclodextrin, vehicle 1): < 1 µg/mL
solubility ([6]; aqueous with cosolvent or surfactant or cyclodextrin, vehicle 2): 2.6 µg/mL (≈ 3.68 µM)
solubility ([6]; aqueous with cosolvent or surfactant or cyclodextrin, vehicle 3): 311 µg/mL (≈ 441 µM)
solubility ([6]; aqueous with cosolvent or surfactant or cyclodextrin, vehicle 4): 361 µg/mL (≈ 512 µM)
solubility ([6]; pH 4, aqueous buffer, vehicle 5): < 1 µg/mL
IC50 ([1]; Homo sapiens, Colon carcinoma cell, in vitro cytotoxicity, 72 hours, MTT, read-out: GC3 IC50): 0.065 nM

Cryptophycin 55 γ-Aminobutyrate Hydrochloride Salt [25′]
IC50 [1, 8]: 230 nM

Cryptophycin 55 (D)-alaninate Hydrochloride Salt [30′]
IC50 [1, 8]: 30 nM

Cryptophycin 55 β-Alaninate Hydrochloride Salt [21′]
IC50 [1, 8]: 21 nM

COc1ccc(CC2NC(=O)C=CCC(C(C)C(OC(=O)C3CCCN3)C(Cl)c3ccccc3)OC(=O)C(CC(C)C)OC(=O)C(C)(C)CNC2=O)cc1Cl (centres unmarked) [17′, Cryptophycin 55 (L)-Prolinate Hydrochloride Salt]
IC50 [1, 8]: 3.6 nM

Cryptophycin 55 Acetate [3′]
IC50 [1, 8]: 83 nM

COc1ccc(C[C@H]2NC(=O)/C=C/C[C@@H]([C@H](C)[C@@H](OC(=O)Cc3ccccc3OP(=O)(O)O)[C@@H](Cl)c3ccccc3)OC(=O)[C@H](CC(C)C)OC(=O)C(C)(C)CNC2=O)cc1Cl [Compound 6, Cryptophycin 55 (2′-Phosphatyl)phenylacetate di-Sodium Salt]
IC50 [1, 9]: 3.7 nM

COc1ccc(CC2NC(=O)C=CCC(C(C)C(OC(=O)CN)C(Cl)c3ccccc3)OC(=O)C(CC(C)C)OC(=O)C(C)(C)CNC2=O)cc1Cl (centres unmarked) [19′, Cryptophycin 55 Glycinate Hydrochloride Salt]
IC50 [1, 8]: 0.1 nM

COc1ccc(CC2NC(=O)C=CCC(C(C)C(OC(=O)CCC(=O)O)C(Cl)c3ccccc3)OC(=O)C(CC(C)C)OC(=O)C(C)(C)CNC2=O)cc1Cl (centres unmarked) [5′, Cryptophycin 55 Succinate]
IC50 [1, 8]: 31 nM

COc1ccc(CC2NC(=O)C=CCC(C(C)C(OC(=O)[C@@H](N)Cc3c[nH]cn3)C(Cl)c3ccccc3)OC(=O)C(CC(C)C)OC(=O)C(C)(C)CNC2=O)cc1Cl (some centres unmarked) [15′, Cryptophycin 55 (L)-Histidinate Dihydrochloride Salt]
IC50 [1, 8]: 60 nM

COc1ccc(C[C@H]2NC(=O)/C=C/C[C@@H]([C@H](C)[C@@H](Br)[C@H](O)c3ccccc3)OC(=O)[C@H](CC(C)C)OC(=O)[C@H](C)CNC2=O)cc1Cl [CRYPTOPHYCIN-138, Cryptophycin-138]
IC50 [1, 7]: 30.8 nM

COc1ccc(CC2NC(=O)C=CCC(C(C)C(OC(=O)[C@@H](N)Cc3ccccc3)C(Cl)c3ccccc3)OC(=O)C(CC(C)C)OC(=O)C(C)(C)CNC2=O)cc1Cl (some centres unmarked) [13′, Cryptophycin 55 (L)-Phenylalaninate Hydrochloride Salt]
IC50 [1, 8]: 7 nM

COc1ccc(C[C@H]2NC(=O)/C=C/C[C@@H]([C@H](C)[C@@H](OC(=O)CCC(=O)O)[C@@H](Cl)c3ccccc3)OC(=O)[C@H](CC(C)C)OC(=O)C(C)(C)CNC2=O)cc1Cl [Compound 4, Cryptophycin 55 Succinate]
IC50 [1, 9]: 31 nM

COc1ccc(C[C@H]2NC(=O)/C=C/C[C@@H]([C@H](C)[C@@H](OC(C)=O)[C@@H](Cl)c3ccccc3)OC(=O)[C@H](CC(C)C)OC(=O)C(C)(C)CNC2=O)cc1Cl [Compound 3, Cryptophycin 55 Acetate]
IC50 [1, 9]: 83 nM

COc1ccc(C[C@H]2NC(=O)/C=C/C[C@@H]([C@H](C)[C@@H](Cl)[C@@H](O)c3ccccc3)OC(=O)[C@H](CC(C)C)OC(=O)[C@H](C)CNC2=O)cc1Cl [CRYPTOPHYCIN-140, Cryptophycin-140]
IC50 [1, 7]: 863 nM

COc1ccc(CC2NC(=O)C=CCC(C(C)C(OC(=O)[C@H](N)Cc3ccc(OC)c(Cl)c3)C(Cl)c3ccccc3)OC(=O)C(CC(C)C)OC(=O)C(C)(C)CNC2=O)cc1Cl (some centres unmarked) [11′, Cryptophycin 55 3-(3-Chloro-4-methoxyphenyl)-(D)-alaninate Hydrochloride Salt]
IC50 [1, 8]: 6.8 nM

COc1ccc(C[C@H]2NC(=O)/C=C/C[C@@H]([C@H](C)[C@@H](O)[C@@H](Cl)c3ccccc3)OC(=O)[C@H](CC(C)C)OC(=O)C(C)(C)CNC2=O)cc1Cl [1′, Cryptophycin 55]
IC50 [1, 8]: 0.065 nM

COc1ccc(C[C@H]2NC(=O)/C=C/C[C@@H]([C@H](C)[C@H](Cl)[C@H](O)c3ccccc3)OC(=O)[C@H](CC(C)C)OC(=O)[C@H](C)CNC2=O)cc1Cl [CRYPTOPHYCIN-142]
IC50 [1, 7]: 1.1 nM

COc1ccc(C[C@H]2NC(=O)/C=C/C[C@@H]([C@H](C)[C@@H](Cl)[C@H](O)c3ccccc3)OC(=O)[C@H](CC(C)C)OC(=O)[C@H](C)CNC2=O)cc1Cl [CRYPTOPHYCIN-141, Cryptophycin-141]
IC50 [1, 7]: 795 nM

COc1ccc(C[C@H]2NC(=O)/C=C/C[C@@H]([C@H](C)[C@H](Cl)[C@@H](O)c3ccccc3)OC(=O)[C@H](CC(C)C)OC(=O)[C@H](C)CNC2=O)cc1Cl [CRYPTOPHYCIN-143]
IC50 [1, 7]: 850 nM

Cryptophycin 55 (2′-phosphatyl)phenylacetate di-sodium Salt [7′]
IC50 [1, 8]: 3.7 nM

— US6680311B1, “Cryptophycin compounds” (Eli Lilly and Company, priority 1996, dated 2004)
